Each structure is given as a SMILES string.

The IC50 is the concentration at which inhibition is half-maximal. A low value points to higher potency.

One experiment has as its target T1, human MER (Homo sapiens, UniProt Q12866).
T1 construct: purchased Invitrogen
T1 sequence (Q12866 21-999): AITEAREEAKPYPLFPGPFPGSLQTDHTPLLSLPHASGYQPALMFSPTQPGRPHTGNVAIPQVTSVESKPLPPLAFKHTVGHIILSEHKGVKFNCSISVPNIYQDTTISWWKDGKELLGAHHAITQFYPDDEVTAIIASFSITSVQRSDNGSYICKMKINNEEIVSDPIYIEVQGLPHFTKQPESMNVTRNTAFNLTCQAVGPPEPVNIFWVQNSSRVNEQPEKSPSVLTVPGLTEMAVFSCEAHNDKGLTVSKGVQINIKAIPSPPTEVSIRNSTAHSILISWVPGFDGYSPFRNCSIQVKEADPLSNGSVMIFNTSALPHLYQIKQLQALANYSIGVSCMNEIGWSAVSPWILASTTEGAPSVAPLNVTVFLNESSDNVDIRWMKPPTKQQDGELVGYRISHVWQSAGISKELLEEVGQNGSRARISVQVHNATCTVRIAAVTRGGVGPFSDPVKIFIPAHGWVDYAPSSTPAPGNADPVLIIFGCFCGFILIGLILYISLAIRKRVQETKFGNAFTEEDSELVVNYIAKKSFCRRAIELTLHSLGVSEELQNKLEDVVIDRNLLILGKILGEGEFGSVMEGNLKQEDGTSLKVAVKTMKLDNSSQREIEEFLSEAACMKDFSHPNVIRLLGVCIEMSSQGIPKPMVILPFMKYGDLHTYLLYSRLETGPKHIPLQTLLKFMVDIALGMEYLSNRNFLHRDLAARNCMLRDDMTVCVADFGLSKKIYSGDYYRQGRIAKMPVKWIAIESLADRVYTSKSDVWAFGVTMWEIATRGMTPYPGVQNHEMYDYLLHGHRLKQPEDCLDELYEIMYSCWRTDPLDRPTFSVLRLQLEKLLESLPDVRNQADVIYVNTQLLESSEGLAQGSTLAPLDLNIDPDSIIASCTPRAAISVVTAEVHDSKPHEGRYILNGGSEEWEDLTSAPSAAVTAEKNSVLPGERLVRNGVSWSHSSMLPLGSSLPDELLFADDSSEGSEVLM
Description: HTRF KinEASE-TK biochemical potency assay, MER. The following applies: 1 nM MER, 700 μM ATP, 800 nM TK Substrate-biotin. The method, then: (§1) Purified recombinant human AXL, TYRO3 and MER proteins were purchased from Invitrogen™. 10 nM AXL, 2 nM TYRO3 or MER were incubated with varying concentrations of compounds in 50 mM HEPES, pH 7.4, 10 mM MgCl2, 0.01% BSA, 1 mM DTT and 2% DMSO in a total volume of 20 μl in a 384-well microplate (Corning™ #3640) at RT for 1 h. The AXL, TYRO3 and MER enzymatic reaction was initiated by transferring 10 μl of enzyme and compound mixture into 10 μl of 1.6 μM TK Substrate-biotin (HTRF® KinEASE-TK kit, Cisbio) and 1400 μM ATP pre-incubated in 50 mM HEPES, pH 7.4, 10 mM MgCl2, 0.01% BSA, 1 mM DTT in a 384-well microplate (Corning™ #3640) at RT, giving the final reaction conditions: 5 nM AXL, 1 nM TYRO3 or MER, 800 nM TK Substrate-biotin and 700 μM ATP in 50 mM HEPES, pH 7.4, 10 mM MgCl2, 0.01% BSA, 1 mM DTT and 1% DMSO with varying concentrations of compounds. Following 2 h incubation at RT, the AXL, TYRO3 and MER enzymatic reaction was stopped by transfer of 10 μl of reaction into 10 μl of detection mix (400 nM Streptavidin-XL665, 200-fold dilution TK Antibody-Cryptate and detection buffer, HTRF® KinEASE-TK kit, Cisbio) in a white 384-well microplate (Perkin Elmer, OptiPlate 384). After 1 h incubation at RT, the plate was put into a plate reader (Evision) to read at 665/620 nm (acceptor/donor) for HTRF. The value of the DMSO blank (MIN inhibition=100% activity) was used as a negative control. The positive control was established by adding 5 μl of enzyme and DMSO mixture into 10 μl of detection mix followed by addition of 5 μl of TK Substrate-biotin and ATP mixture (MAX inhibition=0% activity). To calculate the percent activity, Equation 1 was used. Ratio 665/620 is the value at a given compound concentration: […]
On the technique in general: TR-FRET usually uses a lanthanide donor and a delayed reading to cut background.

A further experiment deals with T2, Axl (Homo sapiens, UniProt P30530).
T2 sequence (P30530 26-894): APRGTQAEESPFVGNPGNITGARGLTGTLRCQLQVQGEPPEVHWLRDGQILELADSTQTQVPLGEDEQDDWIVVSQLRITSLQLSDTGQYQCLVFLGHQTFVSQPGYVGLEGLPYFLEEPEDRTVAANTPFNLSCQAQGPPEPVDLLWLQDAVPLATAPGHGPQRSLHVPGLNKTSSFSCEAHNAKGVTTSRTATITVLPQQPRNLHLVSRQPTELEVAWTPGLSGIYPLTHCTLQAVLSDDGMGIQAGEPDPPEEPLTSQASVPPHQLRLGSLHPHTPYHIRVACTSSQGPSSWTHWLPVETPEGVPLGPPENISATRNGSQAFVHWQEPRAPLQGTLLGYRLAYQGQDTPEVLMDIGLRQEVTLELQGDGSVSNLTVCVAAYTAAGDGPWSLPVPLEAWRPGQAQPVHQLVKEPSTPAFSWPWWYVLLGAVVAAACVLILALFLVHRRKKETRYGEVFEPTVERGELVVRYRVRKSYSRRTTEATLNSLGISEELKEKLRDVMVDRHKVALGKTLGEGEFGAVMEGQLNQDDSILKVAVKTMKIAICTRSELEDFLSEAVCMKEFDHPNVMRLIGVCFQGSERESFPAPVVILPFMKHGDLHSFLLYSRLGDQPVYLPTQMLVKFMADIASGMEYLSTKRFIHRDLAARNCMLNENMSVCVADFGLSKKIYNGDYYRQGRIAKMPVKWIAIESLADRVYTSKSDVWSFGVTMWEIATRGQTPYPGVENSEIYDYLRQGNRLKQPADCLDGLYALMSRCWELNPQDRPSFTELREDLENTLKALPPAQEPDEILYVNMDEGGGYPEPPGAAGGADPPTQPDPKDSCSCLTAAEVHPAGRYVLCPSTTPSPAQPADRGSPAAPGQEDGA
Description: HTRF KinEASE-TK biochemical potency assay, AXL. Also on record: purchased Invitrogen. The following applies: 5 nM AXL, 700 μM ATP, 800 nM TK Substrate-biotin. The method, then: as §1

Turning to `CS(=O)(=O)N1CCC(c2n[nH]c3ncc(-c4ccc5c(c4)CCC(N4CCCC4)CC5)cc23)CC1` (stereo not shown) [Example 23, 1-Methanesulfonyl-4-{5-[7-(pyrrolidin-1-yl)-6,7,8,9-tetrahydro-5H-benzo[7]annulen-2-yl]-1H-pyrazolo[3,4-b]pyridin-3-yl}piperidine], the IC50 on human MER was 0.1 to 1 µM; at Axl, less than 0.1 µM.
For the compound `C[C@H]1CCCN1C1CCc2ccc(-c3cnc4[nH]nc(-c5ccc(S(=O)(=O)C6CC6)cc5)c4c3)cc2CC1` (stereo partly drawn) [Example 24, 3-(4-(Cyclopropylsulfonyl)phenyl)-5-(7-((S)-2-methylpyrrolidin-1-yl)-6,7,8,9-tetrahydro-5H-benzo[7]annulen-2-yl)-1H-pyrazolo[3,4-b]pyridine], the IC50 against human MER was 0.1 to 1 µM; on Axl, less than 0.1 µM.
Take `C[C@@H]1CCCN1C1(C)CCc2ccc(-c3cnc4[nH]nc(-c5ccc(S(=O)(=O)C6CC6)c(F)c5)c4c3)cc2CC1` (stereo partly drawn) [Example 25, (2R)-1-(2-{3-[4-(Cyclopropanesulfonyl)-3-fluorophenyl]-1H-pyrazolo[3,4-b]pyridin-5-yl}-7-methyl-6,7,8,9-tetrahydro-5H-benzo[7]annulen-7-yl)-2-methylpyrrolidine]: the IC50 was 0.1 to 1 µM on human MER and less than 0.1 µM against Axl.
In the case of `O=S(=O)(c1ccc(-c2n[nH]c3ncc(-c4ccc5c(c4)CCN(C4CCOCC4)CC5)cc23)cc1)C1CC1` [Example 26, 7-{3-[4-(Cyclopropanesulfonyl)phenyl]-1H-pyrazolo[3,4-b]pyridin-5-yl}-3-(oxan-4-yl)-2,3,4,5-tetrahydro-1H-3-benzazepine], the IC50 against human MER is greater than 1 µM; on Axl, less than 0.1 µM.
As to `O=S(=O)(c1ccc(-c2n[nH]c3ncc(-c4ccc5c(c4)CCN(CC4CCOC4)CC5)cc23)cc1)C1CC1` (stereo not shown) [Example 27, 7-{3-[4-(Cyclopropanesulfonyl)phenyl]-1H-pyrazolo[3,4-b]pyridin-5-yl}-3-[(oxolan-3-yl)methyl]-2,3,4,5-tetrahydro-1H-3-benzazepine], the values for the IC50 at human MER and at Axl were greater than 1 µM and less than 0.1 µM, respectively.
The corresponding values for `CS(=O)(=O)c1ccc(-c2n[nH]c3ncc(-c4ccc5c(c4)CCN(C4CCCC4)CC5)cc23)cc1` [Example 30, 3-Cyclopentyl-7-(3-(4-(methylsulfonyl)phenyl)-1H-pyrazolo[3,4-b]pyridin-5-yl)-2,3,4,5-tetrahydro-1H-benzo[d]azepine] are 0.1 to 1 µM and less than 0.1 µM.
The corresponding values for `CS(=O)(=O)c1ccc(-c2n[nH]c3ncc(-c4ccc5c(c4)CCN(C4CCCC4)CC5)cc23)cc1Cl` [Example 31, 7-(3-(3-Chloro-4-(methylsulfonyl)phenyl)-1H-pyrazolo[3,4-b]pyridin-5-yl)-3-cyclopentyl-2,3,4,5-tetrahydro-1H-benzo[d]azepine] are 0.1 to 1 µM and less than 0.1 µM.
In the case of `CS(=O)(=O)c1ccc(-c2n[nH]c3ncc(-c4ccc5c(c4)CCN(C4CCCC4)CC5)cc23)cc1F` [Example 32, 3-Cyclopentyl-7-(3-(3-fluoro-4-(methylsulfonyl)phenyl)-1H-pyrazolo[3,4-b]pyridin-5-yl)-2,3,4,5-tetrahydro-1H-benzo[d]azepine], the IC50 on human MER is 0.1 to 1 µM; on Axl, less than 0.1 µM.
For `COCCN1CCc2ccc(-c3cnc4[nH]nc(-c5ccc(C(C)(C)O)c(Cl)c5)c4c3)cc2CC1` [Example 34, 2-(2-Chloro-4-(5-(3-(2-methoxyethyl)-2,3,4,5-tetrahydro-1H-benzo[d]azepin-7-yl)-1H-pyrazolo[3,4-b]pyridin-3-yl)phenyl)propan-2-ol], in that order: greater than 1 µM and less than 0.1 µM.
With `C[C@@H]1CCCN1C1CCc2ccc(-c3cnc4[nH]nc(-c5ccc(C(C)(C)O)c(Cl)c5)c4c3)cc2CC1` (stereo partly drawn) [Example 35, 2-(2-Chloro-4-(5-(7-((R)-2-methylpyrrolidin-1-yl)-6,7,8,9-tetrahydro-5H-benzo[7]annulen-2-yl)-1H-pyrazolo[3,4-b]pyridin-3-yl)phenyl)propan-2-ol], the values for the IC50 against human MER and against Axl were 0.1 to 1 µM and less than 0.1 µM, respectively.
The corresponding values for `C[C@H]1CCCN1C1CCc2ccc(-c3cnc4[nH]nc(-c5ccc(S(C)(=O)=O)cc5)c4c3)cc2CC1` (stereo partly drawn) [Example 36, 5-(7-((S)-2-Methylpyrrolidin-1-yl)-6,7,8,9-tetrahydro-5H-benzo[7]annulen-2-yl)-3-(4-(methylsulfonyl)phenyl)-1H-pyrazolo[3,4-b]pyridine] are 0.1 to 1 µM and less than 0.1 µM.
`C[C@H]1CCCN1C1CCc2ccc(-c3cnc4[nH]nc(-c5ccc(C(C)(C)O)c(Cl)c5)c4c3)cc2CC1` (stereo partly drawn) [Example 37, 2-(2-Chloro-4-(5-(7-((S)-2-methylpyrrolidin-1-yl)-6,7,8,9-tetrahydro-5H-benzo[7]annulen-2-yl)-1H-pyrazolo[3,4-b]pyridin-3-yl)phenyl)propan-2-ol]: the IC50 on human MER is 0.1 to 1 µM; on Axl, less than 0.1 µM.
As to `C[C@@H]1CCCN1C1CCc2ccc(-c3cnc4[nH]nc(-c5ccc(S(C)(=O)=O)cc5)c4c3)cc2CC1` (stereo partly drawn) [Example 38, 5-(7-((R)-2-Methylpyrrolidin-1-yl)-6,7,8,9-tetrahydro-5H-benzo[7]annulen-2-yl)-3-(4-(methylsulfonyl)phenyl)-1H-pyrazolo[3,4-b]pyridine], the IC50 was 0.1 to 1 µM against human MER and less than 0.1 µM against Axl.
As to `C[C@@H]1CCCN1C1CCc2ccc(-c3cnc4[nH]nc(-c5ccc(S(=O)(=O)C6CC6)cc5)c4c3)cc2CC1` (stereo partly drawn) [Example 39, 3-(4-(Cyclopropylsulfonyl)phenyl)-5-(7-((R)-2-methylpyrrolidin-1-yl)-6,7,8,9-tetrahydro-5H-benzo[7]annulen-2-yl)-1H-pyrazolo[3,4-b]pyridine], the IC50 against human MER is 0.1 to 1 µM; against Axl, less than 0.1 µM.

The record behind these values is patent US20240246967A1, “AXL COMPOUNDS” (ARCUS BIOSCIENCES, INC., priority 2021, published 2024).
